# Assay results published in article PMC11510214, “Novel Dual Acetyl- and Butyrylcholinesterase Inhibitors Based on the Pyridyl–Pyridazine Moiety for the Potential Treatment of Alzheimer’s Disease” (Pharmaceuticals, 2024).
# “And” between values parts separate entries of the source, which are not always exact repeats. Equal entries are not always repeated.
# Experiments:
# [1] = molecular target: T1, acetylcholinesterase (AChE) (Homo sapiens, UniProt P22303); conditions: for Selectivity Index (AChE/BuChE): ratio between (AChE/BuChE) IC50; for IC50 against acetylcholinesterase (AChE): human enzyme, dose response 0.01 to 100 µM;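 as to all read-outs here: Kit-based enzyme assay using enzymes of human origin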
# T1 sequence (P22303 32-614): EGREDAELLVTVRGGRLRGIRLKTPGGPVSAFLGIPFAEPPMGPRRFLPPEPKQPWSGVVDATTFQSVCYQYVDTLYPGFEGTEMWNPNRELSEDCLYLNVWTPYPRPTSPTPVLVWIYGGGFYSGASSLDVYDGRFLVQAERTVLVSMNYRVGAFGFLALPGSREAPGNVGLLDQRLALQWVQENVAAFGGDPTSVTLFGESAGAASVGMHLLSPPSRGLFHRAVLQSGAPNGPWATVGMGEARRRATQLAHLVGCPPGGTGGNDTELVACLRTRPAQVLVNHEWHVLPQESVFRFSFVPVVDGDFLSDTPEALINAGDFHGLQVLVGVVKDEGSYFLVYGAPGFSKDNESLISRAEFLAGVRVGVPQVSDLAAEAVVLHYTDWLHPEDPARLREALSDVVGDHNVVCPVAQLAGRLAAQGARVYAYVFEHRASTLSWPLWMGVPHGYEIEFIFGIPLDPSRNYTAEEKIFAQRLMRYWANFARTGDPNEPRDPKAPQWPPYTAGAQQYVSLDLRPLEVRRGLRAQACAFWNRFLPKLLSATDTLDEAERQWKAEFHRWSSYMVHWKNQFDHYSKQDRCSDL
# Procedure: (§1) Experimental procedures were followed as instructed by the kits’ manufacturer. The enzymes used in the assays were of human origin. IC50 values of the compounds were calculated from the obtained dose response curve, and selectivity index was calculated as a ratio between (AChE/BuChE) IC50.
# [2] = molecular target: T1, acetylcholinesterase (AChE); experiment: biochemical; conditions: for IC50: IC50 against acetylcholinesterase (AChE), human enzyme, dose response 0.01 to 100 µM; for inhibition at 0.01 µM / inhibition at 0.1 µM / inhibition at 1 µM / inhibition at 10 µM / inhibition at 100 µM: read-out: % inhibition AChE
# Procedure: as §1
# [3] = molecular target: butyrylcholinesterase (BuChE) (Homo sapiens, UniProt P06276); experiment: biochemical; conditions: for IC50: IC50 against butyrylcholinesterase (BuChE), human enzyme, dose response 0.01 to 100 µM; for inhibition at 0.01 µM / inhibition at 0.1 µM / inhibition at 1 µM / inhibition at 10 µM / inhibition at 100 µM: read-out: % inhibition BuChE
# butyrylcholinesterase (BuChE), sequence (P06276 29-602): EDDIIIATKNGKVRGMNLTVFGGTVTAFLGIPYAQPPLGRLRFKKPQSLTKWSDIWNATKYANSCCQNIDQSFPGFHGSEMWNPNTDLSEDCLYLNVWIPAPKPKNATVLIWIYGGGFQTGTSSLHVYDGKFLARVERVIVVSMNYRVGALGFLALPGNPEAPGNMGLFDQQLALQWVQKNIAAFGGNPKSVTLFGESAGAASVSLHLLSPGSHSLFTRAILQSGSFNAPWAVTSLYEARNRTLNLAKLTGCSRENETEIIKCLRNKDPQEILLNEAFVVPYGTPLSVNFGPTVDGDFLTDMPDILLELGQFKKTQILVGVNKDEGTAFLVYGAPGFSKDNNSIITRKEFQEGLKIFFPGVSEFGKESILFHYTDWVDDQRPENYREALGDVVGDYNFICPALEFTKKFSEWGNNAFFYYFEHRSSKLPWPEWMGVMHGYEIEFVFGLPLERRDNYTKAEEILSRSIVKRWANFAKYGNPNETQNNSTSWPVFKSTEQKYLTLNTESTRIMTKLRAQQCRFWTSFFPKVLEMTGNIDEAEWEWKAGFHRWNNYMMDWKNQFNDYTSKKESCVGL
# Procedure: as §1
# AChE = tested on: AChE; design: method as in PMID 23466605, PMID 10052979, PMID 29775949, PMID 31675671; conditions: Figure 1; ref [37],[30],[34],[38],[36]; read-out: AChE inhibition IC50; cited from earlier work
smiles,measurement,setting,value
OCCOCCn1cc(CSc2ccc(-c3ccccn3)nn2)nn1 [Compound 9],Selectivity Index (AChE/BuChE),[1],1.68
same,IC50,[2],0.647 µM and 0.64 µM
same,inhibition at 0.01 µM,[2],35%
same,inhibition at 0.1 µM,[2],54%
same,inhibition at 1 µM,[2],70%
same,inhibition at 10 µM,[2],82%
same,inhibition at 100 µM,[2],92%
same,IC50,[3],0.384 µM and 0.38 µM
same,inhibition at 0.01 µM,[3],22%
same,inhibition at 0.1 µM,[3],37%
same,inhibition at 1 µM,[3],56%
same,inhibition at 10 µM,[3],80%
same,inhibition at 100 µM,[3],93%
Cc1ccc(-c2ccc(=O)n(CCc3n[nH]c(=S)n3-c3ccc(OC(F)(F)F)cc3)n2)cc1 [VII],IC50,AChE,0.049 µM
"OC[C@H]1O[C@@H](n2cc(CSc3ccc(-c4ccccn4)nn3)nn2)[C@H](O)[C@@H]1O [Compound 8, (2R,3S,4R,5R)-2-(Hydroxymethyl)-5-(4-(((6-(pyridin-2-yl)pyridazin-3-yl)thio)methyl)-1H-1,2,3-triazol-1-yl)tetrahydrofuran-3,4-diol]",Selectivity Index (AChE/BuChE),[1],0.12
same,IC50,[2],0.64 ± 0.02 µM
same,inhibition at 0.01 µM,[2],26%
same,inhibition at 0.1 µM,[2],43%
same,inhibition at 1 µM,[2],62%
same,inhibition at 10 µM,[2],88%
same,inhibition at 100 µM,[2],93%
same,IC50,[3],5.35 ± 0.17 µM
same,inhibition at 0.01 µM,[3],5.9%
same,inhibition at 0.1 µM,[3],13%
same,inhibition at 1 µM,[3],22%
same,inhibition at 10 µM,[3],55%
same,inhibition at 100 µM,[3],82%
COc1ccc(-c2ccc(C(=O)NCCC3CCN(Cc4ccccc4)CC3)nn2)cc1 [V],IC50,AChE,0.11 µM
"OCCn1cc(CSc2ccc(-c3ccccn3)nn2)nn1 [Compound 10, 2-(4-(((6-(Pyridin-2-yl)pyridazin-3-yl)thio)methyl)-1H-1,2,3-triazol-1-yl)ethan-1-ol]",Selectivity Index (AChE/BuChE),[1],0.30
same,IC50,[2],1.84 ± 0.07 µM
same,inhibition at 0.01 µM,[2],24%
same,inhibition at 0.1 µM,[2],40%
same,inhibition at 1 µM,[2],68%
same,inhibition at 10 µM,[2],83%
same,inhibition at 100 µM,[2],90%
same,IC50,[3],6.06 ± 0.2 µM
same,inhibition at 0.01 µM,[3],5.6%
same,inhibition at 0.1 µM,[3],13%
same,inhibition at 1 µM,[3],31%
same,inhibition at 10 µM,[3],51%
same,inhibition at 100 µM,[3],78%
"CC(=O)OC[C@H]1O[C@@H](n2cc(CSc3ccc(-c4ccccn4)nn3)nn2)[C@H](OC(C)=O)[C@@H]1OC(C)=O [Compound 6, (2R,3R,4R,5R)-2-(Acetoxymethyl)-5-(4-(((6-(pyridin-2-yl)pyridazin-3-yl)thio)methyl)-1H-1,2,3-triazol-1-yl)tetrahydrofuran-3,4-diyl diacetate]",IC50 against acetylcholinesterase (AChE),[1],moderate inhibition
same,Selectivity Index (AChE/BuChE),[1],0.29
same,IC50,[2],9.15 µM
same,inhibition at 0.01 µM,[2],9%
same,inhibition at 0.1 µM,[2],29%
same,inhibition at 1 µM,[2],55%
same,inhibition at 10 µM,[2],73%
same,inhibition at 100 µM,[2],88%
same,IC50,[3],32 ± 1.05 µM
same,inhibition at 0.01 µM,[3],4%
same,inhibition at 0.1 µM,[3],8.1%
same,inhibition at 1 µM,[3],19%
same,inhibition at 10 µM,[3],33%
same,inhibition at 100 µM,[3],69%
CC(=O)OC1COC(n2cc(CSc3ccc(-c4ccccn4)nn3)nn2)C(OC(C)=O)C1OC(C)=O (centres unmarked) [Compound 5],Selectivity Index (AChE/BuChE),[1],1.41
same,IC50,[2],0.266 µM and 0.26 µM
same,inhibition at 0.01 µM,[2],42%
same,inhibition at 0.1 µM,[2],61%
same,inhibition at 1 µM,[2],71%
same,inhibition at 10 µM,[2],83%
same,inhibition at 100 µM,[2],94%
same,IC50,[3],0.189 µM and 0.18 µM
same,inhibition at 0.01 µM,[3],25%
same,inhibition at 0.1 µM,[3],48%
same,inhibition at 1 µM,[3],67%
same,inhibition at 10 µM,[3],78%
same,inhibition at 100 µM,[3],91%
CC(=O)OCC1O[C@@H](n2cc(CNc3c4c(nc5ccccc35)CCCC4)nn2)C(OC(C)=O)C(OC(C)=O)C1OC(C)=O (some centres unmarked) [VI],IC50,AChE,4.89 µM
"NCCn1cc(CSc2ccc(-c3ccccn3)nn2)nn1 [Compound 11, 2-(4-(((6-(Pyridin-2-yl)pyridazin-3-yl)thio)methyl)-1H-1,2,3-triazol-1-yl)ethan-1-amine]",Selectivity Index (AChE/BuChE),[1],0.34
same,IC50,[2],14.6 ± 0.61 µM
same,inhibition at 0.01 µM,[2],7.5%
same,inhibition at 0.1 µM,[2],26%
same,inhibition at 1 µM,[2],53%
same,inhibition at 10 µM,[2],76%
same,inhibition at 100 µM,[2],90%
same,IC50,[3],42.9 ± 1.52 µM
same,inhibition at 0.01 µM,[3],-8.1%
same,inhibition at 0.1 µM,[3],7.5%
same,inhibition at 1 µM,[3],12%
same,inhibition at 10 µM,[3],33%
same,inhibition at 100 µM,[3],71%
"CC(=O)OCC1OC(n2cc(CSc3ccc(-c4ccccn4)nn3)nn2)C(OC(C)=O)C(OC(C)=O)C1OC(C)=O [Compound 3, (2R,3R,4S,5R,6R)-2-(Acetoxymethyl)-6-(4-(((6-(pyridin-2-yl)pyridazin-3-yl)thio)methyl)-1H-1,2,3-triazol-1-yl)tetrahydro-2H-pyran-3,4,5-triyltriacetate]",IC50 against acetylcholinesterase (AChE),[1],moderate inhibition
same,Selectivity Index (AChE/BuChE),[1],29.32
same,IC50,[2],8.71 µM and 8.7 µM
same,inhibition at 0.01 µM,[2],7.4%
same,inhibition at 0.1 µM,[2],23%
same,inhibition at 1 µM,[2],43%
same,inhibition at 10 µM,[2],72%
same,inhibition at 100 µM,[2],88%
same,IC50,[3],0.297 µM and 0.29 µM
same,inhibition at 0.01 µM,[3],25%
same,inhibition at 0.1 µM,[3],39%
same,inhibition at 1 µM,[3],61%
same,inhibition at 10 µM,[3],79%
same,inhibition at 100 µM,[3],93%
"COc1cc2c(cc1OC)C(=O)C(CC1CCN(Cc3ccccc3)CC1)C2 (centres unmarked) [Donepezil, donepezil, reference compound]",inhibition at 0.01 µM,[3],16%
same,inhibition at 0.1 µM,[3],32%
same,inhibition at 1 µM,[3],65%
same,inhibition at 10 µM,[3],84%
same,inhibition at 100 µM,[3],94%
"CCN(C)C(=O)Oc1cccc([C@H](C)N(C)C)c1 [Rivastigmine, rivastigmine, reference compound]",inhibition at 0.01 µM,[3],0.7%
same,inhibition at 0.1 µM,[3],3.2%
same,inhibition at 1 µM,[3],7%
same,inhibition at 10 µM,[3],38%
same,inhibition at 100 µM,[3],80%
"OC[C@H]1O[C@@H](n2cc(CSc3ccc(-c4ccccn4)nn3)nn2)[C@H](O)[C@@H](O)[C@@H]1O [Compound 7, (2R,3S,4S,5R,6R)-2-(Hydroxymethyl)-6-(4-(((6-(pyridin-2-yl)pyridazin-3-yl)thio)methyl)-1H-1,2,3-triazol-1-yl)tetrahydro-2H-pyran-3,4,5-triol]",IC50 against acetylcholinesterase (AChE),[1],moderate inhibition
same,Selectivity Index (AChE/BuChE),[1],0.39
same,IC50,[2],3.14 ± 0.13 µM
same,inhibition at 0.01 µM,[2],14%
same,inhibition at 0.1 µM,[2],38%
same,inhibition at 1 µM,[2],62%
same,inhibition at 10 µM,[2],80%
same,inhibition at 100 µM,[2],92%
same,IC50,[3],7.9 ± 0.26 µM
same,inhibition at 0.01 µM,[3],7.8%
same,inhibition at 0.1 µM,[3],13%
same,inhibition at 1 µM,[3],23%
same,inhibition at 10 µM,[3],48%
same,inhibition at 100 µM,[3],79%
"C#CCSc1ccc(-c2ccccn2)nn1 [Compound 1, 3-(Prop-2-yn-1-ylthio)-6-(pyridin-2-yl)pyridazine]",Selectivity Index (AChE/BuChE),[1],2.64
same,IC50,[2],11.5 ± 0.48 µM
same,inhibition at 0.01 µM,[2],6.1%
same,inhibition at 0.1 µM,[2],23%
same,inhibition at 1 µM,[2],51%
same,inhibition at 10 µM,[2],74%
same,inhibition at 100 µM,[2],89%
same,IC50,[3],4.37 ± 0.14 µM
same,inhibition at 0.01 µM,[3],8.7%
same,inhibition at 0.1 µM,[3],19%
same,inhibition at 1 µM,[3],27%
same,inhibition at 10 µM,[3],54%
same,inhibition at 100 µM,[3],83%
"CC(=O)OC[C@H]1O[C@@H](n2cc(CSc3ccc(-c4ccccn4)nn3)nn2)[C@H](OC(C)=O)[C@@H](OC(C)=O)[C@H]1OC(C)=O [Compound 4, (2R,3S,4S,5R,6R)-2-(Acetoxymethyl)-6-(4-(((6-(pyridin-2-yl)pyridazin-3-yl)thio)methyl)-1H-1,2,3-triazol-1-yl)tetrahydro-2H-pyran-3,4,5-triyl triacetate]",Selectivity Index (AChE/BuChE),[1],0.81
same,IC50,[2],11.9 ± 0.5 µM
same,inhibition at 0.01 µM,[2],11%
same,inhibition at 0.1 µM,[2],29%
same,inhibition at 1 µM,[2],47%
same,inhibition at 10 µM,[2],71%
same,inhibition at 100 µM,[2],87%
same,IC50,[3],14.6 ± 0.48 µM
same,inhibition at 0.01 µM,[3],5.1%
same,inhibition at 0.1 µM,[3],11%
same,inhibition at 1 µM,[3],20%
same,inhibition at 10 µM,[3],41%
same,inhibition at 100 µM,[3],75%
